Molecules are shown by their SMILES.

For assay [1], the target named is dopaminergic D3 receptor (Homo sapiens, UniProt P35462). In words: Cellular functional assay, dopaminergic D3 receptor (agonism/antagonism). The note with it: for inhibition at 1 µM: CHO, read-out: D3-antag. [%]; for activation at 1 µM: agonist effect, percent of control specific agonist response (300 nM dopamine for control), 1×10^−6 M, D3 (h), CHO cells, read-out: D3-ag [%]. It is filed as cell-based. As for the experimental part: (§1) The compounds were tested at the concentration of 1×10^−6M.
Chain of dopaminergic D3 receptor (P35462 whole entry): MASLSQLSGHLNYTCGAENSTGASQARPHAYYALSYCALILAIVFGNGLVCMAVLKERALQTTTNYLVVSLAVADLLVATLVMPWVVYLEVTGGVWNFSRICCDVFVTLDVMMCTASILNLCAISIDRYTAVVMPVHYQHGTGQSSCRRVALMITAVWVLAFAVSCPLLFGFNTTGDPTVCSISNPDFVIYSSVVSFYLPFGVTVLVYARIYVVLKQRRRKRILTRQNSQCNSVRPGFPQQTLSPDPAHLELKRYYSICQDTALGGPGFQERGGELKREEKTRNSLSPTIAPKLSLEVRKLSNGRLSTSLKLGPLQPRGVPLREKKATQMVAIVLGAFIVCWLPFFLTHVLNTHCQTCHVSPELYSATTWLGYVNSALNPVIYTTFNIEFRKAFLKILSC
(§2) In the Tables ag refers to agonism, and antag to antagonism).

Assay [2] concerns the target T1, muscarinic M3 receptor (Homo sapiens, UniProt P20309).
T1 construct: expressed in transfected cells; host or cells: CHO cells
Nature of the assay: Binding assay M3 (h), [3H]4-DAMP, CHO cells. The note with it: read-out: M3 [%]. Summed up: (§3)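 Total binding and binding under an excess of unlabelled competitor were both measured, the difference giving specific binding. Counts came from scintillation detection, and compound concentration was 1×10^−6 M.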

In assay [3] the target is T2, adrenergic α1A receptor (Homo sapiens, UniProt P35348).
T2 sequence (P35348 1-466): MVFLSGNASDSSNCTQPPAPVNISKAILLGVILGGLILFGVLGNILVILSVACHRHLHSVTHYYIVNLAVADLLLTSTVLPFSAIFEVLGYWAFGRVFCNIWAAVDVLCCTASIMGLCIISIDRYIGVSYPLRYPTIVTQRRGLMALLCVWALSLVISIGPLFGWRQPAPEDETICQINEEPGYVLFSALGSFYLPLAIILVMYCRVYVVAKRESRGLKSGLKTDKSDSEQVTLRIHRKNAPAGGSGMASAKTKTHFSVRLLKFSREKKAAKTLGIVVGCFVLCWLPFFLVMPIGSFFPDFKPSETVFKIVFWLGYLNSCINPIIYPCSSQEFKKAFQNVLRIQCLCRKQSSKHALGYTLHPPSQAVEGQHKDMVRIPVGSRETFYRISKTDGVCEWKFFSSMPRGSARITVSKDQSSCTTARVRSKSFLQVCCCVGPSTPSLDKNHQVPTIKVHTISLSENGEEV
In words: Cellular functional assay, adrenergic α1A receptor (agonism/antagonism). It is filed as cell-based. The note with it: for activation at 1 µM: agonist effect, percent of control specific agonist response, compounds tested at 1×10^−6M, read-out: α1A -ag [%]; for inhibition at 1 µM: read-out: α1A -antag. [%]. As for the experimental part: […]. The compounds were tested at the concentration of 1×10^−6M.
Conditions and methodology (by reference to the literature) of cellular functional assays are given in Table 13 and the tests results for representative compounds are given in Table 14 (dopaminergic receptor D2), in Table 15 (dopaminergic receptor D3), in Table 16 (serotoninergic receptor 5-HT1A), in Table 17 (serotoninergic receptor 5-HT2A), in Table 18 (serotoninergic receptor 5-HT6), in Table 19 (serotoninergic receptor 5-HT7), in Table 20 (adrenergic α1 receptor), in Table 21 (adrenergic α2C receptor), in Table 22 (histaminergic H1 receptor) and in Table 23 (serotoninergic 5-HT2C receptor). In the Tables ag refers to agonism, and antag to antagonism).

The target in assay [4] is histaminergic H1 receptor (Homo sapiens, UniProt P35367). Nature of the assay: Binding assay H1 (h), [3H]pyrilamine, HEK-293 cells. Also noted: expressed in transfected cells; host or cells: HEK-293 cells. The note with it: read-out: H1 [%]. Summed up: as §3
Chain of histaminergic H1 receptor (P35367 whole entry): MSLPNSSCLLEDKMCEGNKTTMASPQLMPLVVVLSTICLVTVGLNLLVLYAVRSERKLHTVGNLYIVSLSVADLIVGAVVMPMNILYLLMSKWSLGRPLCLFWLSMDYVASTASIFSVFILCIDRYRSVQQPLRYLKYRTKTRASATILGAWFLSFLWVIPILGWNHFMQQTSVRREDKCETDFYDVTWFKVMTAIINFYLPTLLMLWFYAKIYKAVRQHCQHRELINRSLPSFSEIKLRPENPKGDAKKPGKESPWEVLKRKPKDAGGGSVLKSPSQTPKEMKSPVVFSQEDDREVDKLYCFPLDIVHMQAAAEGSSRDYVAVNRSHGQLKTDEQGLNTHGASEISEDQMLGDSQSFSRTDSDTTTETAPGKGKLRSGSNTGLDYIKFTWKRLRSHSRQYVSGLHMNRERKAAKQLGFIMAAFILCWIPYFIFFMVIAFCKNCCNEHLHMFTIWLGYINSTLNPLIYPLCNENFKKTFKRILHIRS
The target of assay [5] is T3, adrenergic α2C receptor (Homo sapiens, UniProt P18825).
T3 sequence (P18825 1-462): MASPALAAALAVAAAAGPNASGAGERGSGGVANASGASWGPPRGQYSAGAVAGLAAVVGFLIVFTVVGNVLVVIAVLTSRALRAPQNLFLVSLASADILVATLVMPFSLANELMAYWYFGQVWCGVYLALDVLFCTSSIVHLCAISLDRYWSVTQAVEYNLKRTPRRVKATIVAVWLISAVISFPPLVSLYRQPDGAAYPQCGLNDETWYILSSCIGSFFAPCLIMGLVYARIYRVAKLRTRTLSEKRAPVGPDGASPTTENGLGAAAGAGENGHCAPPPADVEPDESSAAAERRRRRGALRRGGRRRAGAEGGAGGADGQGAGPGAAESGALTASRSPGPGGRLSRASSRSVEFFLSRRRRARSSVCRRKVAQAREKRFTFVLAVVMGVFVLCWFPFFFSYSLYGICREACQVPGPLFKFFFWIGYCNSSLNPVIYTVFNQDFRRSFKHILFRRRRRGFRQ
Nature of the assay: Cellular functional assay, adrenergic α2C receptor (agonism/antagonism). It is filed as cell-based. Particulars: for activation at 1 µM: agonist effect, percent of control specific agonist response, compounds tested at 1×10^−6M, read-out: α2C −ag [%]; for inhibition at 1 µM: read-out: α2C −antag. [%]. As for the experimental part:
as §1, §2

Assay [6] concerns the target T4, serotoninergic 5-HT6 receptor (Homo sapiens, UniProt P50406). Nature of the assay: Binding assay 5-HT6 (h), [3H]LSD, CHO cells. Also noted: expressed in transfected cells; host or cells: CHO cells. The note with it: read-out: 5-HT6. An outline of the steps:
as §3

The target of assay [7] is serotoninergic 5-HT7 receptor (Homo sapiens, UniProt P34969). In words: Binding assay 5-HT7 (h), [3H]LSD, CHO cells. Also noted: expressed in transfected cells; host or cells: CHO cells. The note with it: read-out: 5-HT7. An outline of the steps: as §3
Chain of serotoninergic 5-HT7 receptor (P34969 whole entry): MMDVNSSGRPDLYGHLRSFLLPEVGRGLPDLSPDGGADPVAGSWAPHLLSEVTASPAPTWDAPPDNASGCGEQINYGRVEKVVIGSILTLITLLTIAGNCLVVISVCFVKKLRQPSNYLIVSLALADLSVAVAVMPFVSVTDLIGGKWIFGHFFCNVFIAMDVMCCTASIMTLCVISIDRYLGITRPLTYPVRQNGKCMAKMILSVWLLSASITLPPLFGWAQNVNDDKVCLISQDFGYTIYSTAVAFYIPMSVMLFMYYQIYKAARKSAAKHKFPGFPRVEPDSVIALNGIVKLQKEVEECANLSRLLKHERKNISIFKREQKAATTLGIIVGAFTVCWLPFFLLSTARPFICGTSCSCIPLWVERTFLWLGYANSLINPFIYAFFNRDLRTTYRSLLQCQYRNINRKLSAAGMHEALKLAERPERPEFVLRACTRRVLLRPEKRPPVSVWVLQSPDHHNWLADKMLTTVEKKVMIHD
Assay [8] concerns the target T5, serotonine transporter (SERT) receptor (Homo sapiens, UniProt P31645).
T5 construct: expressed in transfected cells; host or cells: CHO cells
Nature of the assay: Binding assay SERT (h), [3H]imipramine, CHO cells. The note with it: read-out: SERT [%]. Summed up:
as §3

Assay [9] has as its target dopaminergic D2 receptor (Homo sapiens, UniProt P14416). In words: Binding assay D2S (h), [3H]methyl-spiperone, HEK-293 cells. The arrangement: expressed in transfected cells; host or cells: HEK-293 cells. The note with it: read-out: D2 [%]. An outline of the steps:
as §3

Assay [10] addresses T4, serotoninergic 5-HT6 receptor. Nature of the assay: Cellular functional assay, serotoninergic 5-HT6 receptor (agonism/antagonism). The assay is classed as cell-based. Particulars: for activation at 1 µM: agonist effect, percent of control specific agonist response, compounds tested at 1×10^−6M, read-out: 5-HT6-ag [%]; for inhibition at 1 µM: read-out: 5-HT6-antag. [%]. The procedure: as §1, §2

Chain of dopaminergic D2 receptor (P14416 1-414 isoform P14416-2): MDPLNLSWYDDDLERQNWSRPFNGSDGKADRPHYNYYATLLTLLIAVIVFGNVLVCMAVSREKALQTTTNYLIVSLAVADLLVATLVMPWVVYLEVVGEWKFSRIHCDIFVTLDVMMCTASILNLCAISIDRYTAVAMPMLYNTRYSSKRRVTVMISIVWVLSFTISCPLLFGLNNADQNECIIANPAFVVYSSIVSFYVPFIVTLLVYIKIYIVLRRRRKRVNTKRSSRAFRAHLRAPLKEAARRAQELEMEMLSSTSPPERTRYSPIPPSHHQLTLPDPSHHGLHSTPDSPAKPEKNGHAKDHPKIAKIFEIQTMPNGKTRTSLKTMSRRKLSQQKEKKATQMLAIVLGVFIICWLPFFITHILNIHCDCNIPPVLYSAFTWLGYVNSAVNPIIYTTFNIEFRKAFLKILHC
T4 sequence (P50406 whole entry): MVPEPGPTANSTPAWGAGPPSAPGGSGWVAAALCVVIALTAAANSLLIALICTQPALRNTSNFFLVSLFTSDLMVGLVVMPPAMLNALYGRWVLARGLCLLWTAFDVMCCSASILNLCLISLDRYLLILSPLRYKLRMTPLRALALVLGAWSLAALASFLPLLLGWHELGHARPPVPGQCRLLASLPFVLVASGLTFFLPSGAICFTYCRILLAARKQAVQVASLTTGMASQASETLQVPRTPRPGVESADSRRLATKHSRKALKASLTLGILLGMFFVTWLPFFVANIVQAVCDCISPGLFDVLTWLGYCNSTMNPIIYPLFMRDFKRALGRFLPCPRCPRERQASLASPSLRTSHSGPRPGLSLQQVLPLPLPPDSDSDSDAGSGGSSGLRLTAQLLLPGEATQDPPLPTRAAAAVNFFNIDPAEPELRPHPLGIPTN
T1 sequence (P20309 whole entry): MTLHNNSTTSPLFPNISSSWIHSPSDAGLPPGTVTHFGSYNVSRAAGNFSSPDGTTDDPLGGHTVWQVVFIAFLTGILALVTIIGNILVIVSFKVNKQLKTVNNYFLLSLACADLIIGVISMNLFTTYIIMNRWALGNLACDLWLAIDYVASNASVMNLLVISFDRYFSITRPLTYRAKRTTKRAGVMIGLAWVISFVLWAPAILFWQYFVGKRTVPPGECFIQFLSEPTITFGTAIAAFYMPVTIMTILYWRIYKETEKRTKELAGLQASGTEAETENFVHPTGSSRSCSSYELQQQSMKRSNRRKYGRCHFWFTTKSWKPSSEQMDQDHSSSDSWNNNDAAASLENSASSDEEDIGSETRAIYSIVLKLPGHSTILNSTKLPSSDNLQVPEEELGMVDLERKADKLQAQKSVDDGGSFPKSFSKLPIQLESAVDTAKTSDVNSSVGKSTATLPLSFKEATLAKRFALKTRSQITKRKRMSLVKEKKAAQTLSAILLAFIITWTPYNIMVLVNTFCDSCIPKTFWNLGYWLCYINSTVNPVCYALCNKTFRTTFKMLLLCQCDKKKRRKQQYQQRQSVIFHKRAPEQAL
T5 sequence (P31645 whole entry): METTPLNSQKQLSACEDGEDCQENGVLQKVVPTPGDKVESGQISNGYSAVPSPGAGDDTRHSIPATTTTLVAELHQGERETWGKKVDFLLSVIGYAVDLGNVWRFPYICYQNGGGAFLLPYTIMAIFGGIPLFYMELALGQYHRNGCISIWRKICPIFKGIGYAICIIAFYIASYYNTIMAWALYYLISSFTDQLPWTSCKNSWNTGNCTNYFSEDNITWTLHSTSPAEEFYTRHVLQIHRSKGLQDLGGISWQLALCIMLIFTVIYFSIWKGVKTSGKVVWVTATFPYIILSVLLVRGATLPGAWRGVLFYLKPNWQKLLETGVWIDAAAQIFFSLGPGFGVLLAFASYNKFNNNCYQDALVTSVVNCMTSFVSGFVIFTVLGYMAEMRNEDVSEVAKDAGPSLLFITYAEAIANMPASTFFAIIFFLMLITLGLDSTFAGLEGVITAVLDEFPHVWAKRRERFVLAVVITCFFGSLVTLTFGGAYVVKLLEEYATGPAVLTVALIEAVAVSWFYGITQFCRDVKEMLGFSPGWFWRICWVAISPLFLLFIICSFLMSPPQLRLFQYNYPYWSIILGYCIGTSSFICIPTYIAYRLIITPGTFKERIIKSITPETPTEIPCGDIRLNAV

Consider `O=S(=O)(NCCCCN1CCN(c2noc3ccccc23)CC1)c1ccc(-c2ccccc2)cc1` [Compound 283, N-[4-[4-(1,2-Benzoxazol-3-yl)piperazin-1-yl]butyl]-4-phenylbenzenesulphonamide], for which the inhibition at 1 µM in assay [1] is 58%; in assay [2], -4%; in assay [3], 100%; in [4], 96%; in assay [5], 25%; in [6], 96%. The inhibition at 1 µM was determined as 99% in [7], 24% in [8], 99% in [9] and 64% in assay [10]. The activation at 1 µM in [1] is -10%; in assay [3] it was 0%; in assay [5] it was 2%; in assay [10], 0%.
Turning to `N#Cc1cccc(S(=O)(=O)NCCCN2CCC(c3noc4cc(F)ccc34)CC2)c1` [Compound 338, 3-cyano-N-[3-[4-(6-fluoro-1,2-benzoxazol-3-yl)piperidin-1-yl]propyl]benzenesulphonamide], the inhibition at 1 µM in assay [1] amounted to 109%; in assay [2], 1%; in assay [3] it was 100%; in [4], 95%; in assay [5], 9%; in assay [6], 94%. The inhibition at 1 µM was determined as 98% in assay [7], 21% in [8], 98% in assay [9] and 88% in assay [10]. Besides, the activation at 1 µM in [1] was -10%; in [3], 2%; in [5] it was -3%; in [10], 0%.
Regarding `O=S(=O)(NCCCCN1CCC(c2noc3cc(F)ccc23)CC1)c1ccc(Br)cc1` [Compound 298, 4-Bromo-N-[4-[4-(6-fluoro-1,2-benzoxazol-3-yl)piperidin-1-yl]butyl]benzenesulphonamide], the inhibition at 1 µM was found to be 99% in assay [1]; 19% in assay [2]; 100% in [3]; 90% in assay [4]; 39% in [5]; 98% in [6]. Besides, the inhibition at 1 µM in [7] was found to be 100%; in [8], 35%; in assay [9], 99%; in [10] it was 89%. The activation at 1 µM in [1] was -8%; in [3], 1%; in assay [5] it was -4%; in assay [10] it was 0%.
For `O=S(=O)(NCCCCN1CCC(c2noc3cc(F)ccc23)CC1)c1cc2ccccc2s1` [Compound 312, N-[4-[4-(6-Fluoro-1,2-benzoxazol-3-yl)piperidin-1-yl]butyl]benzothiophene-2-sulphonamide], the inhibition at 1 µM in [1] was found to be 97%; in assay [2] it was 19%; in assay [3] it was 100%; in [4] it was 86%; in assay [5], 39%; in assay [6], 98%. Besides, the inhibition at 1 µM in [7] was 97%; in assay [8] it was 35%; in assay [9] it was 99%; in [10] it was 76%. Moreover, the activation at 1 µM was 10% in [1], 0% in assay [3], 61% in assay [5] and -1% in assay [10].
